Read-outs that look alike come from different tables or passages of the source.
How the values were obtained:
[1] = system: Serratia marcescens expressing IMP-1 (CL5741); assay type: cell-based; conditions: IMP-1 strain CL5741, with imipenem 1 μg/ml, 95% inhibition of growth
Procedure, shortened: (§1)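 Colonies grown overnight on blood agar at 35° C were suspended in saline, diluted 1:100 into 1.1×CAMHB and dispensed. Imipenem was added to 1 μg/ml, then test compound. After 22 hours to 24 hours at 35° C, absorbance was recorded.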

[2] = system: Klebsiella pneumoniae expressing VIM-1 (IHMA599644); assay type: cell-based; conditions: VIM-1 strain IHMA599644, with imipenem 1 μg/ml, 95% inhibition of growth
Procedure, shortened: as §1

[3] = system: Escherichia coli expressing NDM-1 (CLB30005, CLB30016); assay type: cell-based; conditions: NDM-1 strain, with imipenem 1 μg/ml, 95% inhibition of growth
Procedure, shortened: as §1

IMP-1 = IMP-1 (Serratia marcescens, UniProt P52699); test: biochemical; assay type: biochemical; conditions: fluorescence assay, CCF2-FA substrate, 2 pM enzyme, 2 hours at 25° C.; read-out: IMP-1 IC50
IMP-1, sequence (P52699 whole entry, looked up, species assumed): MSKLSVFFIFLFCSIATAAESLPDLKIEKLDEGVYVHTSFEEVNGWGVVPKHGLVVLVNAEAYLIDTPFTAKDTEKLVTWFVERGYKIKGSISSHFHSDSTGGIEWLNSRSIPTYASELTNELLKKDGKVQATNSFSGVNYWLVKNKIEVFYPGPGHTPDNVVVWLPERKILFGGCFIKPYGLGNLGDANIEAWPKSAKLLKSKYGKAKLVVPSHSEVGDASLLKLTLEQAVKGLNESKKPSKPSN
Procedure, shortened: (§2)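 Inhibitor was mixed with the metallo-β-lactamase and CCF2-FA. After 2 hours at 25° C, fluorescence of the coumarin–fluorescein cephalosporin substrate was read. IC50 was calculated with a 4-parameter fit.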

NDM-1 = NDM-1 (Klebsiella pneumoniae, UniProt C7C422); test: biochemical; assay type: biochemical; conditions: fluorescence assay, CCF2-FA substrate, 1 pM enzyme, 2 hours at 25° C.; read-out: NDM-1 IC50
NDM-1, sequence (C7C422 whole entry, looked up, species assumed): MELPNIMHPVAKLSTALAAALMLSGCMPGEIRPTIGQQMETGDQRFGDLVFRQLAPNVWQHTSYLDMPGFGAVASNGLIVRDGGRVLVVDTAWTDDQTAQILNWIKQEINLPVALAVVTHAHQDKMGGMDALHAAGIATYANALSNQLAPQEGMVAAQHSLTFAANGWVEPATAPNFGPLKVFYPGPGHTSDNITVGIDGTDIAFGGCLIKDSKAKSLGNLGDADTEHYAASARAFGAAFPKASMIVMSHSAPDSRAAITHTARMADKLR
Procedure, shortened: as §2

[4] = system: Pseudomonas aeruginosa MB9798 vs MB9799; conditions: fold difference between efflux+ (MB9798) and efflux− (MB9799) strains; imipenem at 2 μg/mL
Procedure, shortened: (§3)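 PAO1 pair, broth microdilution; fixed β-lactam (imipenem/ceftazidime) at ~CLSI breakpoint + fixed class A/C BLI for AmpC; serial MBLi titration; endpoint = MBLi conc. restoring susceptibility; MB9798:MB9799 ratio = efflux liability.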

VIM-1 = VIM-1 (Pseudomonas aeruginosa (strain ATCC 15692 / DSM 22644 / CIP 104116 / JCM 14847 / LMG 12228 / 1C / PRS 101 / PAO1), UniProt A0A0F7KYQ8); test: biochemical; conditions: CCF2-FA substrate, 30 pM enzyme, 2 hours at 25° C.
Procedure, shortened: as §2

[5] = system: Pseudomonas aeruginosa efflux+ (MB9798), IMP-1; assay type: cell-based; design: Concentration of metallo-β-lactamase inhibitor which restores susceptibility of efflux + (MB9798) strain to imipenem: unit not given here; conditions: efflux+ MB9798; imipenem at 2 μg/mL; in the presence of a class A, C, D serine β-lactamase inhibitor closely related to relebactam
Procedure, shortened: as §3

[6] = system: Pseudomonas aeruginosa efflux− (MB9799), IMP-1; assay type: cell-based; conditions: efflux− MB9799; imipenem at 2 μg/mL; in the presence of a class A, C, D serine β-lactamase inhibitor closely related to relebactam
Procedure, shortened: as §3

[7] = fluorescence assay, read-out: VIM-1 IC50

Structure (SMILES) | Serratia marcescens MITC95 [1] [µM] | Klebsiella pneumoniae MITC95 [2] [µM] | Escherichia coli MITC95 [3] [µM] | IC50 (IMP-1) [nM] | IC50 (NDM-1) [nM] | Efflux ratio [4] | IC50 (VIM-1; [7]) [nM] | Concentration of metallo-β-lactamase inhibitor which restores susceptibility of efflux + (MB9798) strain to imipenem [5] | Concentration of metallo-β-lactamase inhibitor which restores susceptibility of efflux − (MB9799) strain to imipenem [6] | IC50 (VIM-1; VIM-1 IC50, fluorescence assay) [nM]
NCCNCc1sc(N)nc1-c1cccc(-c2ccc(S(=O)(=O)N[C@@H]3CCNC3)c(S(N)(=O)=O)c2-c2nnn[nH]2)c1 [Example 433] | 1.563 | 1.563 | 0.7813 | 1.33 | 0.51 | 2.00 | 0.404 | 1.563 | 0.7813 | 
NC[C@H](N)CNS(=O)(=O)c1ccc(-c2cccc(-c3c[nH]c(N)n3)c2)c(-c2nn[nH]n2)c1S(N)(=O)=O [Example 434] | 1.563 | 1.563 | 0.7813 | 1.53 | 0.2 | 2.00 | 0.337 | 1.563 | 0.7813 | 
NCC(CN)NS(=O)(=O)c1ccc(-c2cccc(-c3c[nH]c(N)n3)c2)c(-c2nn[nH]n2)c1S(N)(=O)=O [Example 435] | 3.125 | 3.125 | 1.563 | 1.78 | 0.46 | 2.00 | 1.21 | 3.125 | 1.563 | 
NCC(CN)NS(=O)(=O)c1ccc(-c2cccc3sc(N)nc23)c(-c2nn[nH]n2)c1S(N)(=O)=O [Example 436] | 1.563 | 1.563 | 0.7813 | 0.103 | 0.0246 | 1.00 | 0.116 | 0.7813 | 0.7813 | 
NCC(CN)NS(=O)(=O)c1ccc(-c2ccnc(-c3cnc(N)[nH]3)c2)c(-c2nnn[nH]2)c1S(N)(=O)=O [Example 437, 4-(2-(2-Amino-1H-imidazol-5-yl)pyridin-4-yl)-N^1-(1,3-diaminopropan-2-yl)-3-(1H-tetrazol-5-yl)benzene-1,2-disulfonamide] | 3.125 | 3.125 | 0.7813 | 2.41 | 1.18 | 2.00 |  | 1.563 | 0.7813 | 0.952
NCC(CN)NS(=O)(=O)c1ccc(-c2cccc(-c3cnc(N)[nH]3)n2)c(-c2nnn[nH]2)c1S(N)(=O)=O [Example 438, 4-(6-(2-Amino-1H-imidazol-5-yl)pyridin-2-yl)-N^1-(1,3-diaminopropan-2-yl)-3-(1H-tetrazol-5-yl)benzene-1,2-disulfonamide] | 3.125 | 3.125 | 3.125 | 17.9 | 2.04 | 2.00 |  | 6.25 | 3.125 | 3.91
Nc1ncc(-c2cccc(-c3ccc(S(=O)(=O)N[C@@H]4CCNC4)c(S(N)(=O)=O)c3-c3nnn[nH]3)n2)[nH]1 [Example 439, (R)-4-(6-(2-Amino-1H-imidazol-5-yl)pyridin-2-yl)-N^1-(pyrrolidin-3-yl)-3-(1H-tetrazol-5-yl)benzene-1,2-disulfonamide] | 1.563 | 1.563 | 3.125 | 6.72 | 0.254 | 4.00 | 0.629 | 6.25 | 1.563 | 
Nc1ncc(-c2cc(-c3ccc(S(=O)(=O)N[C@@H]4CCNC4)c(S(N)(=O)=O)c3-c3nnn[nH]3)ccn2)[nH]1 [Example 440, (R)-4-(2-(2-Amino-1H-imidazol-5-yl)pyridin-4-yl)-N^1-(pyrrolidin-3-yl)-3-(1H-tetrazol-5-yl)benzene-1,2-disulfonamide] | 1.563 | 1.563 | 0.7813 | 3.96 | 0.333 | 2.00 |  | 1.563 | 0.7813 | 0.571
C[C@H](N)Cc1nc2c(-c3ccc(S(N)(=O)=O)c(S(N)(=O)=O)c3-c3nn[nH]n3)cccc2[nH]1 [Example 442, (S)-4-(2-(2-aminopropyl)-1H-benzo[d]imidazol-4-yl)-3-(2H-tetrazol-5-yl)benzene-1,2-disulfonamide] | 1.563 | 3.125 | 1.563 | 1.33 | 0.431 | 0.50 |  | 0.7813 | 1.563 | 0.249
NCCNS(=O)(=O)c1ccc(-c2cccc3[nH]c([C@@H]4C[C@@H](O)CN4)nc23)c(-c2nn[nH]n2)c1S(N)(=O)=O [Example 444, N1-(2-aminoethyl)-4-(2-((2S,4R)-4-hydroxypyrrolidin-2-yl)-1H-benzo[d]imidazol-4-yl)-3-(2H-tetrazol-5-yl)benzene-1,2-disulfonamide] | 3.125 | 3.125 | 1.563 | 1.59 | 0.236 | 1.00 |  | 1.563 | 1.563 | 0.235
NCCNS(=O)(=O)c1ccc(-c2cccc3[nH]c(C(F)(F)CN)nc23)c(-c2nn[nH]n2)c1S(N)(=O)=O [Example 445, 4-(2-(2-amino-1,1-difluoroethyl)-1H-benzo[d]imidazol-4-yl)-N1-(2-aminoethyl)-3-(2H-tetrazol-5-yl)benzene-1,2-disulfonamide] | 3.125 | 3.125 | 3.125 | 0.37 | 0.0446 | 1.00 | 0.114 | 1.563 | 1.563 | 
NCC(F)(F)c1nc2c(-c3ccc(S(=O)(=O)N[C@H]4CCNC4)c(S(N)(=O)=O)c3-c3nn[nH]n3)cccc2[nH]1 [Example 446, (S)-4-(2-(2-amino-1,1-difluoroethyl)-1H-benzo[d]imidazol-4-yl)-N1-(pyrrolidin-3-yl)-3-(2H-tetrazol-5-yl)benzene-1,2-disulfonamide] | 3.125 | 3.125 | 1.563 | 0.446 | 0.0569 | 2.00 | 0.153 | 3.125 | 1.563 | 
